Here are results for seven compounds from patent US20260070899A1, “N-(2-(4-CYANOTHIAZOLIDIN-3-YL)-2-OXOETHYL)-QUINOLINE-4-CARBOXAMIDES” (AstraZeneca AB, priority 2022, published 2026).

For data set [1], the target named is T1, human dipeptidylpeptidase 8 (hDPP8) (Homo sapiens, UniProt Q6V1X1).
T1 construct: purchased BPS Bioscience 80080
Nature of the data set: hDPP8 inhibition assay. The class given is biochemical. The settings on record: hDPP8 1.5 nM, Ala-Pro-amino-methylcoumarin 5 μM; n = 1. How it is done:
(§1) Compounds were tested in a biochemical inhibition assay using human dipeptidylpeptidase 8 (hDPP8) enzyme at 1.5 nM FAC (BPS Bioscience, #80080) and the substrate Ala-Pro-amino-methylcoumarin (BPS Bioscience #80305) at 5 μM FAC. The enzymatic reactions were conducted in duplicate at rt for 30 min in 50 μL DPP assay buffer (BPS Bioscience, #80300). Compound solutions (in DMSO) at 10 CR, 3 fold dilution series were prepared in assay buffer ten-fold higher than the final concentration, and 5 μL of the dilution was added to a 50 μL reaction so that the highest compound concentration was 100 μM FAC and the concentration of DMSO was 1% in all wells. The plates were read on a Tecan Infinite M1000 microplate reader with excitation 340 nm and emission 460 nm. Data were analyzed in Graph Pad Prism. […] Raw data signals were normalized using 1% DMSO as 0% control and no enzyme as 100% inhibitor control.

Data set [2] has as its target T2, human dipeptidylpeptidase 7 (hDPP7) (Homo sapiens, UniProt Q9UHL4).
T2 construct: purchased BPS Bioscience 80070
In words: hDPP7 inhibition assay. In kind it is biochemical. As to conditions: hDPP7 15 nM, Ala-Pro-amino-methylcoumarin 5 μM; n = 1. How it is done: Compounds were tested in a biochemical inhibition assay using human dipeptidylpeptidase 7 (hDPP7) enzyme at 15 nM FAC (BPS Bioscience, #80070) and the substrate Ala-Pro-amino-methylcoumarin (BPS Bioscience, #80305) at 5 μM FAC. The enzymatic reactions were conducted in duplicate at rt for 30 min in 50 μL DPP assay buffer (BPS Bioscience, #80300). Compound solutions (in DMSO) at 10 CR, 3 fold dilution series were prepared in assay buffer ten-fold higher than the final concentration, and 5 μL of the dilution was added to a 50 μL reaction so that the highest compound concentration was 100 μM FAC and the concentration of DMSO was 1% in all wells. The plates were read on a Tecan Infinite M1000 microplate reader with excitation 340 nm and emission 460 nm. Data were analyzed in Graph Pad Prism. […] Raw data signals were normalized using 1% DMSO as 0% control and no enzyme as 100% inhibitor control.

Data set [3] deals with T3, Prolyl endopeptidase, Prolyl Oligopeptidase (hPREP) (Homo sapiens, UniProt P48147).
T3 sequence (P48147 1-710): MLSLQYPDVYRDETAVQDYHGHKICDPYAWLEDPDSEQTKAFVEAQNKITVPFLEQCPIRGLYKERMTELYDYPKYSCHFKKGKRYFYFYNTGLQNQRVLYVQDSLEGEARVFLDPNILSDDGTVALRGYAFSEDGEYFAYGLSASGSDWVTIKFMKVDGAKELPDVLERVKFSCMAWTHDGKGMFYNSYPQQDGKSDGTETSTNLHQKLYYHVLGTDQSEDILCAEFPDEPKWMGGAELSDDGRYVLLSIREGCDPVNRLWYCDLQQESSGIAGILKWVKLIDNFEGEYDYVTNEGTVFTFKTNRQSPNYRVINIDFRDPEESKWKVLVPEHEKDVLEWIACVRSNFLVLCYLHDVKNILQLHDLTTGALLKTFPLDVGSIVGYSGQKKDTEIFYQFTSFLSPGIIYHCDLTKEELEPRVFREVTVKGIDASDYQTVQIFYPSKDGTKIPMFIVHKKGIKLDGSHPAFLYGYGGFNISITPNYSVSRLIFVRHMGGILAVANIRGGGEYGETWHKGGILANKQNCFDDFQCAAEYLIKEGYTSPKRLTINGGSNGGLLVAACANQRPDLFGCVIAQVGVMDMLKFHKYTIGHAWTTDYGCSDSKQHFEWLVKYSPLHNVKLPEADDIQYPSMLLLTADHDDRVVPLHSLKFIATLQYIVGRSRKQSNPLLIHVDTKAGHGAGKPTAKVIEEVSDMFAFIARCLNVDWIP
Nature of the data set: biochemical.

The target in data set [4] is T4, human dipeptidylpeptidase 9 (hDPP9) (Homo sapiens, UniProt Q86TI2).
T4 construct: purchased BPS Bioscience 80090
T4 sequence (Q86TI2 whole entry): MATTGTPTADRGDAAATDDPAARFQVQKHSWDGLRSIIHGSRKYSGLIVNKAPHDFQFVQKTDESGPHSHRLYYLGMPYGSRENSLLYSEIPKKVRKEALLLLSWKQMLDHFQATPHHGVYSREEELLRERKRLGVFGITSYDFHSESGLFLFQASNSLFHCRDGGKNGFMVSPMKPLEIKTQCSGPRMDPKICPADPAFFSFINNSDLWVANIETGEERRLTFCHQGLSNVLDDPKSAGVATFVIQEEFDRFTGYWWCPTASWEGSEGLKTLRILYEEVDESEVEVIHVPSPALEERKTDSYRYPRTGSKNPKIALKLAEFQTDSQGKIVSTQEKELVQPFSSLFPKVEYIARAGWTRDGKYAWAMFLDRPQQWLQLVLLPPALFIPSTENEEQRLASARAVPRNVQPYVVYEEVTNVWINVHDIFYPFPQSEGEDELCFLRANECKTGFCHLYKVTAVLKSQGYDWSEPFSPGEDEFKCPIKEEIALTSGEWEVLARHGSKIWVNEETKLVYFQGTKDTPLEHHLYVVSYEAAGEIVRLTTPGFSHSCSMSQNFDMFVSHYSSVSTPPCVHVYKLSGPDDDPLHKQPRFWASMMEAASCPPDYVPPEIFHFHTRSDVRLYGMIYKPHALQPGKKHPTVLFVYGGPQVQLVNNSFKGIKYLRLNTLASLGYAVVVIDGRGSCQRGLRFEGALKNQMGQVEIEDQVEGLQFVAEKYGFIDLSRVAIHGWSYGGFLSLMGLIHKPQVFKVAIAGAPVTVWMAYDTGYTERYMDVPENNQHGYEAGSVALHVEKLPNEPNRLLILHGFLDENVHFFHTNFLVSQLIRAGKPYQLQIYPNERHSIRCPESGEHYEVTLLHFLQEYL
In words: hDPP9 inhibition assay. The class given is biochemical. As to conditions: hDPP9 0.4 nM, Ala-Pro-amino-methylcoumarin 5 μM; n = 1. As for the experimental part:
as §1, with “9 (hDPP9)” for “8 (hDPP8)”, “0.4” for “1.5”, “#80090)” for “#80080)”

Data set [5] in a line: Metabolic stability in human liver microsomes (HLM). In kind it is in vitro ADME. As to conditions: n = 1 or average (n = 2-3). As for the experimental part: Metabolic stability in HLM was measured as described in J Comput Aided Mol Des 2015, 29, 795.
For orientation: Liver microsomes are a subcellular fraction often used to study metabolism.

For another data set, the target named is T5, hFAP (M39-A757) (Homo sapiens, UniProt Q12884).
T5 sequence (Q12884 39-757): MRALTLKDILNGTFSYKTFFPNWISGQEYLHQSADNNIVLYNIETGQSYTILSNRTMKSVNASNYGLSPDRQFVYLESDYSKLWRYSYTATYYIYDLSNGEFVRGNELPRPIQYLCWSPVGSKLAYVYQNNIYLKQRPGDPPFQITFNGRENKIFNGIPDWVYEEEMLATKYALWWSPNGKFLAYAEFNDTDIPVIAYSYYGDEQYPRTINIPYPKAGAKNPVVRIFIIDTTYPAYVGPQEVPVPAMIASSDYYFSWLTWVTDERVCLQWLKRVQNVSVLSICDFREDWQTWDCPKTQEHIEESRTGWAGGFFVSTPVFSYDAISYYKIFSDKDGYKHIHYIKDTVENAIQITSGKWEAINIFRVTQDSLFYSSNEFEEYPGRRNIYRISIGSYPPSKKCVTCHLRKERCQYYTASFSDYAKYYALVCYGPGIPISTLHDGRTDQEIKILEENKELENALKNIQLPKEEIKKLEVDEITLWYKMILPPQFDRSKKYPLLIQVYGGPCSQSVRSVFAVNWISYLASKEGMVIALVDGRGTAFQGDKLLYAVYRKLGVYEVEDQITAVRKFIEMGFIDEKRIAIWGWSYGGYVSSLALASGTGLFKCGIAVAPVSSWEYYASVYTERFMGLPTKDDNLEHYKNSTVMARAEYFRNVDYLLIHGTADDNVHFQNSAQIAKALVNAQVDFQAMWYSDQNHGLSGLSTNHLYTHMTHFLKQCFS
Nature of the data set: biochemical.

A further data set is described as follows: Kinetic solubility. The class given is physicochemical. As to conditions: kinetic from dmso stock, n = 1 or average (n = 2-4). How it is done:
Kinetic solubility was measured as described in Comput Aided Mol Des 2015, 29, 795.

The next data set has as its target T6, hFAP (Homo sapiens, UniProt Q12884).
T6 sequence (Q12884 38-760): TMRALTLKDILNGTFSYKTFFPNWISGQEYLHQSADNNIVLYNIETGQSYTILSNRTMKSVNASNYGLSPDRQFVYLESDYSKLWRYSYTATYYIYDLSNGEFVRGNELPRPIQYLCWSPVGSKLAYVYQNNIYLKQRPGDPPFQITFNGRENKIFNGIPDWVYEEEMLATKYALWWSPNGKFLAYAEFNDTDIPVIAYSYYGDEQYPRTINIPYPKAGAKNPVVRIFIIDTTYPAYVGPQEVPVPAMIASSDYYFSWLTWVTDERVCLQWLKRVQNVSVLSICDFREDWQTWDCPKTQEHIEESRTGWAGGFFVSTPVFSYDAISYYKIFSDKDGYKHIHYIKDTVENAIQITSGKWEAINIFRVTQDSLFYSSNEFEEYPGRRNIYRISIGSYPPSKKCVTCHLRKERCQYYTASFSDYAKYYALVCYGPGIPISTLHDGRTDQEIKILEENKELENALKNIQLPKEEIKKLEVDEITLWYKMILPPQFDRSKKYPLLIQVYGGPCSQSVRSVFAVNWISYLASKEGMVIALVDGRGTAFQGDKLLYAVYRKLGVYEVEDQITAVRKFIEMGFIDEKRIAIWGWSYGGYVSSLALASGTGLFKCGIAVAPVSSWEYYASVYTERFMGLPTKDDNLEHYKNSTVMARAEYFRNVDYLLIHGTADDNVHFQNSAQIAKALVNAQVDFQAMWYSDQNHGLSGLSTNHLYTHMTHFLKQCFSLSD
In words: biochemical.

Another data set concerns Rat Hepatocytes (rHep). Nature of the data set: Metabolic stability in rat hepatocytes (rHep). In kind it is in vitro ADME. As to conditions: n = 1 or geometric mean (n = 2-3). As for the experimental part:
Metabolic stability in rat hepatocytes was measured as described in J Comput Aided Mol Des 2015, 29, 795.

Data set [6] in a line: Caco-2 bidirectional (ABBA) permeability. In kind it is in vitro ADME. The settings on record: human. As for the experimental part: Caco-2 cell permeability was measured as described in Mol Pharm 2017, 14, 1601.
For orientation: Passage across Caco-2 layers is used to estimate intestinal permeability.

Values after ≈ are worked out from the molar mass of the structure shown.
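For Kd in this document: surface plasmon resonance direct binding to hFAP amine-coupled on a sensor chip, rising compound concentrations by single cycle kinetics, Kd from global fit of interaction models.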

T1 sequence (Q6V1X1 whole entry): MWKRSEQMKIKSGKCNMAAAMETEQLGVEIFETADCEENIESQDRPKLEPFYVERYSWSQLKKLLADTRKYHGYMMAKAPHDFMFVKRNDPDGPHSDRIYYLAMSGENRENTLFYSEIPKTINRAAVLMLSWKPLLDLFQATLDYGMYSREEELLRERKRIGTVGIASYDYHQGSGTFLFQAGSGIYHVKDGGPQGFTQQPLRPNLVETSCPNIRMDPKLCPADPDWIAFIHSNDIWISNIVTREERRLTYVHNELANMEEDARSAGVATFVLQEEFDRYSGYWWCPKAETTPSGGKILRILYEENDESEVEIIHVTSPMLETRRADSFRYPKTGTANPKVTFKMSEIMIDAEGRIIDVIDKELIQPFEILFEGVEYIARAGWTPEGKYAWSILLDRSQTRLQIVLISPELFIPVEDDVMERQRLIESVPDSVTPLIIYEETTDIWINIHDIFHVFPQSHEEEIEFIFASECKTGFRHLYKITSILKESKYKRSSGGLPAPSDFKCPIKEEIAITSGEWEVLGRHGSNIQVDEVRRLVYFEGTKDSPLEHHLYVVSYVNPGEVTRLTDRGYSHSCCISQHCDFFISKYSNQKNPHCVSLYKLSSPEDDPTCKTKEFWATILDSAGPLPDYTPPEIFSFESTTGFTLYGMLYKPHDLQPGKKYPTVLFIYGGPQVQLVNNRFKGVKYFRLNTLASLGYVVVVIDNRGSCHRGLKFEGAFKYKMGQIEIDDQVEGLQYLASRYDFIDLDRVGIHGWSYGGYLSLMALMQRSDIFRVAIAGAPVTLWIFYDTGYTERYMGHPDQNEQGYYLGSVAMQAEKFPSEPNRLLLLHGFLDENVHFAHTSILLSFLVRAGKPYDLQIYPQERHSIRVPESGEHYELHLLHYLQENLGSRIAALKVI
Procedure for hFAP (M39-A757): Compounds were tested in a direct binding assay using 8K surface plasmon resonance biosensor (GE Healthcare) at 20° C. Immobilization of hFAP (M39-A757) on a CMD200M sensor chip (Xantec) was performed using standard amine coupling procedure in immobilization buffer (10 mM HEPES, 150 mM NaCl, 0.05% Tween20, pH 7.4). The surface was washed with 10 mM aq NaOH, 1M NaCl before being activated with EDC/NHS (GE Healthcare), followed by immobilization of hFAP (in 10 mM Acetate pH 5.0). Finally, the surface was deactivated by ethanolamine. Immobilization levels of hFAP were around 4000-6000 RU. The reference spot was treated as described, omitting the injection of hFAP. Compound concentration series were injected over the immobilized protein in increasing concentrations (2-500 nM) using single cycle kinetics in running buffer (20 mM TRIS, 150 mM NaCl, 0.05% Tween20, 1% DMSO, pH 7.4). Interaction models were fitted globally to the experimental traces, enabling determination of kon, koff and Kd.

`N#C[C@@H]1CSCN1C(=O)CNC(=O)c1ccnc2ccc(OC3CCOCC3)cc12` [Example 6, (R)—N-(2-(4-Cyanothiazolidin-3-yl)-2-oxoethyl)-6-((tetrahydro-2H-pyran-4-yl)oxy)quinoline-4-carboxamide]: the IC50 was 6400 nM in [1], above 100000 nM in [2], 1200 nM in [3] and 2900 nM in data set [4].

As for `N#C[C@@H]1CSCN1C(=O)CNC(=O)c1ccnc2ccc(C(F)F)cc12` [Example 71, (R)—N-(2-(4-Cyanothiazolidin-3-yl)-2-oxoethyl)-6-(difluoromethyl)-quinoline-4-carboxamide], in [5], the microsomal CLint was determined as 16 µL/min/mg. The same compound returned a Kd on hFAP (M39-A757) of 0.4 nM. Moreover, the solubility in “Kinetic solubility” was above 1000 µM. For the same compound, the values for the IC50 (at hFAP; in [3]) were 0.43 nM and 15 nM, respectively. In the data set on Rat Hepatocytes (rHep), the “rHeps CLint” value is listed as 8.7 μL/min/1E6.

Regarding `Cc1cc(Cc2ccc3nccc(C(=O)NCC(=O)N4CSC[C@H]4C#N)c3c2)no1` [Example 42, (R)—N-(2-(4-Cyanothiazolidin-3-yl)-2-oxoethyl)-6-((5-methylisoxazol-3-yl)methyl)quinoline-4-carboxamide], the microsomal CLint in [5] turned out to be 12 µL/min/mg. On hFAP (M39-A757), this compound gave a Kd of 0.2 nM. In the data set “Kinetic solubility”, this compound showed a solubility of 190 µM (≈ 80.1 µg/mL). Besides, the half-maximal inhibitory concentration (IC50) is 0.27 nM against hFAP and 180 nM in [3]. Moreover, the “rHeps CLint” value in the data set with Rat Hepatocytes (rHep) amounted to 23 μL/min/1E6.

In data set [5], `N#C[C@@H]1CSCN1C(=O)CNC(=O)c1ccnc2ccc(C3(C#N)CCOCC3)cc12` [Example 59, (R)-6-(4-Cyanotetrahydro-2H-pyran-4-yl)-N-(2-(4-cyanothiazolidin-3-yl)-2-oxoethyl)quinoline-4-carboxamide] returned an intrinsic clearance (microsomal CLint) of 30 µL/min/mg. In addition, the concentration in solution in the data set “Kinetic solubility” (solubility) came to 480 µM (≈ 209 µg/mL). For the same compound, in the data set with Rat Hepatocytes (rHep), the “rHeps CLint” value is listed as 20 μL/min/1E6. Moreover, the apparent permeability from apical to basolateral (Papp A→B) in data set [6] (A to B, n = 1 or average (n = 2), read-out: Caco2 Bidirectional (ABBA) A to B Papp) was determined as 0.24 ×10⁻⁶ cm/s. In addition, in data set [6] (B to A, n = 1 or average (n = 2), read-out: Caco2 Bidirectional (ABBA) B to A Papp), the apparent permeability from basolateral to apical (Papp B→A) stood at 21 ×10⁻⁶ cm/s. The efflux ratio in [6] (read-out: Caco2 Bidirectional (ABBA) Efflux Ratio) was determined as 90. The compound also registered an IC50 in [3] of 430 nM.

`CCOC1(c2ccc3nccc(C(=O)NCC(=O)N4CSC[C@H]4C#N)c3c2)CC1` [Example 76, (R)—N-(2-(4-Cyanothiazolidin-3-yl)-2-oxoethyl)-6-(1-ethoxycyclopropyl)quinoline-4-carboxamide]: the intrinsic clearance (microsomal CLint) in data set [5] was 140 µL/min/mg. The compound further registered a Kd at hFAP (M39-A757) of 2 nM. The compound further returned a solubility in the data set “Kinetic solubility” of 900 µM (≈ 369 µg/mL). The half-inhibitory concentration (IC50) against hFAP was found to be 1.3 nM; in data set [3], 580 nM. Also, the “rHeps CLint” value with Rat Hepatocytes (rHep) came out at 34 μL/min/1E6.

As to `N#C[C@@H]1CSCN1C(=O)CNC(=O)c1ccnc2ccc(-c3ccoc3)cc12` [Example 14, (R)—N-(2-(4-Cyanothiazolidin-3-yl)-2-oxoethyl)-6-(furan-3-yl)quinoline-4-carboxamide], in data set [5], the microsomal CLint worked out at 25 µL/min/mg. The compound further showed an equilibrium dissociation constant (Kd) on hFAP (M39-A757) of 0.046 nM. In “Kinetic solubility”, the solubility was determined as 420 µM (≈ 165 µg/mL). The IC50 is 0.079 nM against hFAP and 8.4 nM in data set [3]. In addition, the “rHeps CLint” value in the data set on Rat Hepatocytes (rHep) was 11 μL/min/1E6.

Compound `Cc1cc(Cc2ccc3nccc(C(=O)NCC(=O)N4CSC[C@H]4C#N)c3c2)n(C)n1` [Example 40, (R)—N-(2-(4-Cyanothiazolidin-3-yl)-2-oxoethyl)-6-((1,3-dimethyl-1H-pyrazol-5-yl)methyl)quinoline-4-carboxamide] showed an intrinsic metabolic clearance (microsomal CLint) in [5] of 29 µL/min/mg. Also, the Kd at hFAP (M39-A757) was 0.13 nM. In “Kinetic solubility”, this compound returned a solubility above 1000 µM. The half-maximal inhibitory concentration (IC50) on hFAP is 0.25 nM; in data set [3], 600 nM. For the same compound, the “rHeps CLint” value with Rat Hepatocytes (rHep) turned out to be 21 μL/min/1E6.

Broadly, the IC50 is the concentration needed to halve the response being measured. Lower therefore signals greater potency in that assay. As usually defined, the microsomal CLint is the rate of metabolic loss divided by the concentration. Lower therefore signals greater metabolic stability. As usually defined, the Kd is the constant that tells how readily two partners part at equilibrium. Higher therefore signals lower affinity. The solubility is how much of the substance goes into solution per volume. For orientation: Papp A→B means the apparent permeability from the apical to the basolateral side of a cell layer. For orientation: Papp B→A means how fast a substance crosses the layer from the basolateral side.
